These results are taken from US8586550B2, “Thiazole derivatives as SGLT2 inhibitors and pharmaceutical composition comprising same” (Green Cross Corporation, priority 2010, dated 2013).

In the assay the target is T1, Human SGLT2 (hSGLT2) (Homo sapiens, UniProt P31639).
T1 construct: expressed in transfected cells
T1 sequence (P31639 1-672): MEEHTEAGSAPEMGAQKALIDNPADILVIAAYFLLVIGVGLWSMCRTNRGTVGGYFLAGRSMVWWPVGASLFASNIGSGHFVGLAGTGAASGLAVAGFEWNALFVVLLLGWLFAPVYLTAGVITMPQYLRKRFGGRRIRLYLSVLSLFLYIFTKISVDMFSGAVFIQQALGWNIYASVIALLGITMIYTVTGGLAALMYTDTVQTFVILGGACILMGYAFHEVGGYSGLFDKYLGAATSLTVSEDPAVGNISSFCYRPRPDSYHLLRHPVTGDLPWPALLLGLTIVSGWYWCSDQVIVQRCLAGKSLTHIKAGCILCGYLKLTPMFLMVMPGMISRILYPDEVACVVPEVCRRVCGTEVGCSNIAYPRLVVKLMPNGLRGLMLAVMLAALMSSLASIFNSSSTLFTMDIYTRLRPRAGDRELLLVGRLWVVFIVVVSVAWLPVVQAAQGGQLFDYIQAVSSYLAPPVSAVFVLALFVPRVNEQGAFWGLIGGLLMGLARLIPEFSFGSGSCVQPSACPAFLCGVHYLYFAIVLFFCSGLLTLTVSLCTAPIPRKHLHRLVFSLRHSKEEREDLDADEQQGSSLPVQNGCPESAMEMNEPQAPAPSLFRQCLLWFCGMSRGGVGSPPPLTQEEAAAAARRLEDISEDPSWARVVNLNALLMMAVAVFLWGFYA
The assay can be described thus: Sodium-dependent glucose transport (14C-AMG uptake) assay in CHO cells stably expressing hSGLT2. Conditions: CHO cells expressing hSGLT2, 14C-AMG uptake, 37° C. for 2 h; single determinations; read-out: hSGLT2 Inhibitory Activity IC50. The assay is classed as cell-based. The gist of the method: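 Uptake of 14C-α-methyl-D-glucopyranoside (8 μM labeled, 1 mM unlabeled, NaCl buffer pH 7.4) measured over 2 h at 37 °C with inhibitor in hSGLT2-transfected CHO cells after 10 min choline-buffer pretreatment. Radioactivity by liquid scintillation; IC50 from nonlinear regression.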
Consider `OC[C@H]1O[C@@H](c2ccc(F)c(Cc3ncc(-c4ccco4)s3)c2)[C@H](O)[C@@H](O)[C@@H]1O` [Example 40, (2S,3R,4R,5S,6R)-2-(4-Fluoro-3-((5-(furan-2-yl)thiazol-2-yl)methyl)phenyl)-6-(hydroxymethyl)tetrahydro-2H-pyran-3,4,5-triol], for which the half-maximal inhibitory concentration (IC50) (usually the concentration that inhibits the measured activity by half) was 6.11 nM.

Consider `OC[C@H]1O[C@@H](c2ccc(C3CC3)c(Cc3ncc(-c4ccco4)s3)c2)[C@H](O)[C@@H](O)[C@@H]1O` [Example 110, (2S,3R,4R,5S,6R)-2-(4-Cyclopropyl-3-((5-(furan-2-yl)thiazol-2-yl)methyl)phenyl)-6-(hydroxymethyl)-tetrahydro-2H-pyran-3,4,5-triol], for which the half-maximal inhibitory concentration (IC50) worked out at 54.8 nM.

With `COc1cc(Cl)c(Cc2ncc(-c3ccc(F)cc3)s2)cc1[C@@H]1O[C@H](CO)[C@@H](O)[C@H](O)[C@H]1O` [Example 74, (2S,3R,4R,5S,6R)-2-(4-Chloro-5-((5-(4-fluorophenyl)thiazol-2-yl)methyl)-2-methoxyphenyl)-6-(hydroxymethyl)tetrahydro-2H-pyran-3,4,5-triol], the IC50 was 6.08 nM.

On to `OC[C@H]1O[C@@H](c2ccc(Cl)c(Cc3cnc(-c4ccccc4)s3)c2)[C@H](O)[C@@H](O)[C@@H]1O` [Example 183, (2S,3R,4R,5S,6R)-2-(4-Chloro-3-((2-phenylthiazol-5-yl)methyl)phenyl)-6-(hydroxymethyl)-tetrahydro-2H-pyran-3,4,5-triol], for which the 50% inhibitory concentration (IC50) turned out to be 5.76 nM.

Turning to `OC[C@H]1O[C@@H](c2ccc(F)c(Cc3ncc(-c4ccc(F)cc4)s3)c2)[C@H](O)[C@@H](O)[C@@H]1O` [Example 45, (2S,3R,4R,5S,6R)-2-(4-Fluoro-3-((5-(4-fluorophenyl)thiazol-2-yl)methyl)phenyl)-6-(hydroxymethyl)tetrahydro-2H-pyran-3,4,5-triol], the IC50 was 47.7 nM.

Regarding `Cc1ccc(S(=O)(=O)OC[C@H]2O[C@@H](c3ccc(Cl)c(Cc4ncc(-c5ccco5)s4)c3)[C@H](O)[C@@H](O)[C@@H]2O)cc1` [Example 138, ((2R,3S,4R,5R,6S)-6-(4-Chloro-3-((5-(furan-2-yl)thiazol-2-yl)methyl)phenyl)-3,4,5-trihydroxy-tetrahydro-2H-pyran-2-yl)methyl 4-methylbenzenesulfonate], the half-maximal inhibitory concentration (IC50) came out at 156 nM.

Turning to `OC[C@H]1O[C@@H](c2ccc(F)c(Cc3ncc(-c4ccoc4)s3)c2)[C@H](O)[C@@H](O)[C@@H]1O` [Example 41, (2S,3R,4R,5S,6R)-2-(4-Fluoro-3-((5-(furan-3-yl)thiazol-2-yl)methyl)phenyl)-6-(hydroxymethyl)tetrahydro-2H-pyran-3,4,5-triol], the IC50 amounted to 30.5 nM.

On to `CCOC(=O)OC[C@H]1O[C@@H](c2ccc(Cl)c(Cc3ncc(-c4ccco4)s3)c2)[C@H](O)[C@@H](O)[C@@H]1O` [Example 160, ((2R,3S,4R,5R,6S)-6-(4-Chloro-3-((5-(furan-2-yl)thiazol-2-yl)methyl)phenyl)-3,4,5-trihydroxytetrahydro-2H-pyran-2-yl)methyl ethyl carbonate], for which the concentration for half-maximal inhibition (IC50) stood at 24 nM.

On to `OC[C@H]1O[C@@H](c2cc(Cc3ncc(-c4ccsc4)s3)c(Cl)cc2Cl)[C@H](O)[C@@H](O)[C@@H]1O` [Example 62, (2S,3R,4R,5S,6R)-2-(2,4-Dichloro-5-((5-(thiophen-3-yl)thiazol-2-yl)methyl)phenyl)-6-(hydroxymethyl)tetrahydro-2H-pyran-3,4,5-triol], for which the IC50 is 2.31 nM.

In the case of `OC[C@H]1O[C@@H](c2cc(Cc3cnc(-c4ccsc4)s3)c(Cl)cc2F)[C@H](O)[C@@H](O)[C@@H]1O` [Example 203, (2S,3R,4R,5S,6R)-2-(4-Chloro-2-fluoro-5-((2-(thiophen-3-yl)thiazol-5-yl)methyl)phenyl)-6-(hydroxymethyl)tetrahydro-2H-pyran-3,4,5-triol], the IC50 worked out at 1.39 nM.

Turning to `OC[C@H]1O[C@@H](c2cc(Cc3ncc(-c4ccco4)s3)c(Cl)cc2O)[C@H](O)[C@@H](O)[C@@H]1O` [Example 112, (2S,3R,4R,5S,6R)-2-(4-Chloro-5-((5-(furan-2-yl)thiazol-2-yl)methyl)-2-hydroxyphenyl)-6-(hydroxymethyl)-tetrahydro-2H-pyran-3,4,5-triol], the IC50 is 0.797 nM.

With `COCCOc1cc(Cl)c(Cc2ncc(-c3ccco3)s2)cc1[C@@H]1O[C@H](CO)[C@@H](O)[C@H](O)[C@H]1O` [Example 117, (2S,3R,4R,5S,6R)-2-(4-Chloro-5-((5-(furan-2-yl)thiazol-2-yl)methyl)-2-(2-methoxyethoxy)phenyl)-6-(hydroxymethyl)-tetrahydro-2H-pyran-3,4,5-triol], the IC50 came to 5.55 nM.

Regarding `OC[C@H]1O[C@@H](c2cc(Cc3ncc(-c4ccc(F)cc4)s3)c(O)c3ccccc23)[C@H](O)[C@@H](O)[C@@H]1O` [Example 123, (2S,3R,4R,5S,6R)-2-(3-((5-(4-Fluorophenyl)thiazol-2-yl)methyl)-4-hydroxynaphthalen-1-yl)-6-(hydroxymethyl)-tetrahydro-2H-pyran-3,4,5-triol], the IC50 worked out at 58.2 nM.

Consider `OC[C@H]1O[C@@H](c2ccc(Cl)c(C3(c4ncc(-c5ccoc5)s4)CC3)c2)[C@H](O)[C@@H](O)[C@@H]1O` [Example 28, (2S,3R,4R,5S,6R)-2-(4-Chloro-3-(1-(5-(furan-3-yl)thiazol-2-yl)cyclopropyl)phenyl)-6-(hydroxymethyl)tetrahydro-2H-pyran-3,4,5-triol], for which the IC50 is 110 nM.

On to `OC[C@H]1O[C@@H](c2ccc(C(F)(F)F)c(Cc3ncc(-c4ccccc4)s3)c2)[C@H](O)[C@@H](O)[C@@H]1O` [Example 51, (2R,3S,4R,5R,6S)-2-(Hydroxymethyl)-6-(3-((5-phenylthiazol-2-yl)methyl)-4-(trifluoromethyl)phenyl)tetrahydro-2H-pyran-3,4,5-triol], for which the IC50 is 20.8 nM.

Regarding “(2S,3R,4R,5S,6R)-2-(4-Chloro-2-ethoxy-5-((5-(thiophen-3-yl)thiazol-2-yl)methyl)phenyl)-6-(hydroxymethyl)tetrahydro-2H-pyran-3,4,5-triol [Example 80]”, the IC50 worked out at 1.18 nM.

Turning to `CCCOc1cnc(Cc2cc([C@@H]3O[C@H](CO)[C@@H](O)[C@H](O)[C@H]3O)ccc2Cl)s1` [Example 22, (2S,3R,4R,5S,6R)-2-(4-Chloro-3-((5-propoxythiazol-2-yl)methyl)phenyl)-6-(hydroxymethyl)-tetrahydro-2H-pyran-3,4,5-triol], the IC50 was 12.4 nM.

With `O=C(OCc1ccccc1)OC[C@H]1O[C@@H](c2ccc(Cl)c(Cc3ncc(-c4ccco4)s3)c2)[C@H](O)[C@@H](O)[C@@H]1O` [Example 164, Benzyl ((2R,3S,4R,5R,6S)-6-(4-chloro-3-((5-(furan-2-yl)thiazol-2-yl)methyl)phenyl)-3,4,5-trihydroxytetrahydro-2H-pyran-2-yl)methyl carbonate], the IC50 is 2.44 nM.

For `OC[C@H]1O[C@@H](c2ccc(C(F)(F)F)c(Cc3ncc(-c4ccsc4)s3)c2)[C@H](O)[C@@H](O)[C@@H]1O` [Example 50, (2R,3S,4R,5R,6S)-2-(Hydroxymethyl)-6-(3-((5-(thiophen-3-yl)thiazol-2-yl)methyl)-4-(trifluoromethyl)phenyl)tetrahydro-2H-pyran-3,4,5-triol], the IC50 came to 14.6 nM.

Consider `CCCCSc1cnc(Cc2cc([C@@H]3O[C@H](CO)[C@@H](O)[C@H](O)[C@H]3O)ccc2Cl)s1` [Example 26, (2S,3R,4R,5S,6R)-2-(3-((5-(Butylthio)thiazol-2-yl)methyl)-4-chlorophenyl)-6-(hydroxymethyl)-tetrahydro-2H-pyran-3,4,5-triol], for which the IC50 was 58.7 nM.
